Laboratory results published in paper PMC11555526, “Development of 2-Aminoadenine-Based Proteolysis-Targeting Chimeras (PROTACs) as Novel Potent Degraders of Monopolar Spindle 1 and Aurora Kinases” (ACS Pharmacology & Translational Science, 2024).
Read-outs that look alike come from different tables or passages of the source.

How the values were obtained:
[1] = target: T1, AURKB (MV4-11^AURKB-HiBiT cells) (Homo sapiens, UniProt Q96GD4); test: HiBiT assay, AURKB degradation; format: cell-based; set-up: key to Dmax (maximal degradation) AURKB: compounds with degradation less than 15% reported as “inactive”; details: 6 h treatment; for DC50: read-out: DC50 (half-maximal degradation concentration) AURKB; for Dmax: read-out: Dmax (maximal degradation) AURKB
T1 construct: expressed in transfected cells; host or cells: MV4-11, lentiviral transduction (pRRL-PGK vector)
T1 sequence (Q96GD4 1-345 isoform Q96GD4-5): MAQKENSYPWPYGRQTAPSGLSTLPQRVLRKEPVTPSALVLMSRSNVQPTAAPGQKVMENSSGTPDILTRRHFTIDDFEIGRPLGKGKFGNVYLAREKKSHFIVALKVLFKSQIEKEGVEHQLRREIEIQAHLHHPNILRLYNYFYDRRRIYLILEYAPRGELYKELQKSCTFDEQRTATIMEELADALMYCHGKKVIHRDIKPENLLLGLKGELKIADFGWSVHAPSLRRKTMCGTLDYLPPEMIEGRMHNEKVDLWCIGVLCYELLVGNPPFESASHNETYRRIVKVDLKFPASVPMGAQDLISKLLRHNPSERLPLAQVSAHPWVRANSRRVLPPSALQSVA
Method: (§1) The effects of the synthesized compounds on AURKA, AURKB, and TTK mitotic kinases were then assessed in cellular systems. For this, HiBiT cell lines were generated for all three mitotic kinases. A small 11 amino acid peptide fragment of luciferase (HiBiT) was fused to the coding sequence of the proteins and stably transduced in the MV4-11 cell line (MV4-11^AURKA-HiBiT, MV4-11^AURKB-HiBiT, and MV4-11^HiBiT-TTK).
(§2) The stable cell lines MV4-11^AURKA-HiBiT, MV4-11^AURKB-HiBiT, and MV4-11^HiBiT-TTK cells were generated by lentiviral infection. Lentivirus was produced using the respective HiBiT vector, plasmids psPAX2, and pMD2.G in HEK293 cells. The virus supernatant was filtered and MV4-11 cells were doubly infected with the supernatant. The cells were selected after 48 h of infection until the control cells were dead to get the stable cell line.
(§3) The cells stably expressing HiBiT-tagged protein were seeded into 96-well plates and treated with serial dilutions of compounds for the indicated time points. At the end point, the assay was performed using the Nano-Glo HiBiT Lytic Detection System (Promega) according to the manufacturer’s instruction. Luminescence was measured on a GloMax 96 Microplate Luminometer (Promega) or a Tecan Spark Multiplate reader (Tecan). DC50 was calculated using concentrations showing sigmoidal behavior with the dose–response (four parameters) equation in Prism (GraphPad).

[2] = target: T2, AURKA (MV4-11^AURKA-HiBiT cells) (Homo sapiens, UniProt O14965); test: HiBiT assay, AURKA degradation; format: cell-based; details: for Dmax (maximal degradation) AURKA / DC50 / Dmax: 6 h treatment, MV4-11^AURKA-HiBiT cells; for DC50: read-out: DC50 (half-maximal degradation concentration) AURKA; for Dmax: read-out: Dmax (maximal degradation) AURKA
T2 construct: expressed in transfected cells; host or cells: MV4-11, lentiviral transduction
T2 sequence (O14965 1-403): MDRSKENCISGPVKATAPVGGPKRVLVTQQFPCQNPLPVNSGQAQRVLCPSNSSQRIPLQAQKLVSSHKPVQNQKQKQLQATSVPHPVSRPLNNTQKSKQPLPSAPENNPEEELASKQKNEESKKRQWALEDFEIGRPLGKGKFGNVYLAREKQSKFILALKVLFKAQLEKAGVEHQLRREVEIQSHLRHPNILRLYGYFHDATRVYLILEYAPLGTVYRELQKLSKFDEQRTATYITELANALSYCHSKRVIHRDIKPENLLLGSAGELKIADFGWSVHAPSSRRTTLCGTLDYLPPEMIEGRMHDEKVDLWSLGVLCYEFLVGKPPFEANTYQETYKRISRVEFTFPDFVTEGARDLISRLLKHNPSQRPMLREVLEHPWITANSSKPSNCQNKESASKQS
Method: as §1, §2, §3

MV4-11 cells (naive) = test: alamarBlue cell viability assay; format: cell-based, human
Method: Finally, to study the effect of the compounds on cancer cell survival, MV4-11 cells were treated with various concentrations of the chimeras and the cell viability was assessed after 72 h. […] As opposed to the parent inhibitor MPS1-IN-3, its derivatives except 40 were not cytotoxic (Figure S7B, Table 5). […] In addition, most of the SF1-based derivatives affected the viability of MV4-11 cells in nanomolar concentrations (Table 5).
For the alamarBlue cell viability assay, cells were seeded in 96-well plates and treated with indicated concentrations of the compounds or vehicle. A few hours before the experimental end point (72 h, unless otherwise stated), the cells were incubated with the alamarBlue reagent. Finally, fluorescence (excitation: 550 nm and emission: 600 nm) or absorbance (570 nm with reference at 600 nm) was measured on a Tecan Spark Multiplate reader (Tecan).

[3] = target: T3, TTK (MV4-11^HiBiT-TTK cells) (Homo sapiens, UniProt P33981); test: HiBiT assay, TTK degradation; format: cell-based; set-up: key to Dmax (maximal degradation) TTK: compounds with degradation less than 15% reported as “inactive”; details: for Dmax (maximal degradation) TTK / DC50 / DC50 (half-maximal degradation concentration) TTK / Dmax: 6 h treatment, MV4-11^HiBiT-TTK cells; for DC50: read-out: DC50 (half-maximal degradation concentration) TTK; for Dmax: read-out: Dmax (maximal degradation) TTK
T3 construct: expressed in transfected cells; host or cells: MV4-11, lentiviral transduction (pRRL-PGK-HiBiT entry vector)
T3 sequence (P33981 1-857): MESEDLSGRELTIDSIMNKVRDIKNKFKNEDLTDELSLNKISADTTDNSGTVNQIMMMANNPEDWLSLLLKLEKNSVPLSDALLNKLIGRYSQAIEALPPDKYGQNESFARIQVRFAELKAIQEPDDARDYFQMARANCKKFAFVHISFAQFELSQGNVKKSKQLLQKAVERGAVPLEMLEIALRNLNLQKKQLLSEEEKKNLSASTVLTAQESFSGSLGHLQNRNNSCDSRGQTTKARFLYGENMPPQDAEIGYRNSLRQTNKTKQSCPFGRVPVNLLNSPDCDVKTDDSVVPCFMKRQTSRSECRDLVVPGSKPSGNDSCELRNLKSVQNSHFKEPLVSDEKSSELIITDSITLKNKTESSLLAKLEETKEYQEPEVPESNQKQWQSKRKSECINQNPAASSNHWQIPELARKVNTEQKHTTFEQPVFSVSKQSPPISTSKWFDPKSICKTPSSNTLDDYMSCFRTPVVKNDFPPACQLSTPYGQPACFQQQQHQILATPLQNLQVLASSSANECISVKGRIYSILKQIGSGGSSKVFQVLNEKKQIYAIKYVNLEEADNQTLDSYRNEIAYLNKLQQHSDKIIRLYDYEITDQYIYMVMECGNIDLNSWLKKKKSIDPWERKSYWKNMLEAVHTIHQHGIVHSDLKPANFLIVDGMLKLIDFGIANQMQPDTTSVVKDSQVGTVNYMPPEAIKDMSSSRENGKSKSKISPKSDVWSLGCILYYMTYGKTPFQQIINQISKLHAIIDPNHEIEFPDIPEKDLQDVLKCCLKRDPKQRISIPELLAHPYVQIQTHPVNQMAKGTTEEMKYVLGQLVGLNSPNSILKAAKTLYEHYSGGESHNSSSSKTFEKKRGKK
Method: as §1, §2, §3

[4] = 72 h treatment, MV4-11 cells (naive), read-out: EC50 (concentration that decreases cell viability by 50%)
[5] = Homo sapiens, 72 h treatment, MV4-11 cells (naive), read-out: EC50 (concentration that decreases cell viability by 50%)

Row | Dmax (maximal degradation) AURKB [1] | Dmax (maximal degradation) AURKA [2] [%] | DC50 [2] [nM] | Dmax (maximal degradation) TTK [3] | DC50 [3] [nM] | DC50 [1] [nM] | EC50 (MV4-11 cells (naive); [4]) [nM] | fold lower activity (DC50) against TTK in comparison to degrader 19 ([3]; HiBiT, 6 h) [fold] | Dmax [1] [%] | Dmax [2] [%] | EC50 (MV4-11 cells (naive); [5]) [nM] | Dmax [3] [%] | selectivity of AURKA degradation (DC50) relative to TTK ([2]; HiBiT, 6 h) [fold] | SMILES | DC50 (half-maximal degradation concentration) AURKB [1] | EC50 (concentration that decreases cell viability by 50%) (MV4-11 cells (naive); 72 h treatment, MV4-11 cells (naive)) | EC50 (MV4-11 cells (naive); 72 h, MV4-11 cells, read-out: EC50 cytotoxicity) [nM] | DC50 (half-maximal degradation concentration) TTK [3]
1 | inactive | 59.30 | 56 | 41.90% | 26 | – | – | – | – | – | – | – | – | COc1cc(N2CCN(C(=O)CNC(=O)CCCC(=O)Nc3cccc4c3C(=O)N(C3CCC(=O)NC3=O)C4=O)CC2)ccc1Nc1nc(Nc2ccccc2S(=O)(=O)C(C)C)c2nc[nH]c2n1 (centres unmarked) [Compound 21] | – (compounds with degradation less than 25% were not calculated and reported as “–”) | — (compounds with decrease of cell viability less than 50% were not calculated and reported as “—”) | – | –
2 | 33.40% | 34.80 | 119 | 28.90% | 205 | 2690 | 57 | – | – | – | – | – | – | CC(C)S(=O)(=O)c1ccccc1Nc1nc(Nc2ccc(N3CCN(CC(=O)Nc4cccc5c4C(=O)N(C4CCC(=O)NC4=O)C5=O)CC3)cc2)nc2[nH]cnc12 (centres unmarked) [Compound 26] | – | – | – | –
3 | 19.90% | 49.10 | 17 | 27.20% | 468 | – | 405 | – | – | – | – | – | – | CC(C)S(=O)(=O)c1ccccc1Nc1nc(Nc2ccc(N3CCN(C(=O)CCC(=O)NCCNc4cccc5c4C(=O)N(C4CCC(=O)NC4=O)C5=O)CC3)cc2)nc2[nH]cnc12 (centres unmarked) [Compound 30] | – (compounds with degradation less than 25% were not calculated and reported as “–”) | – | – | –
4 | 48.30% | 55.25 | 299 | 32.55% | 600 | 363 | 697 | 34 | – | – | – | – | – | CN1C(=O)CCC(N2C(=O)c3cccc(NC(=O)CCCC(=O)NCC(=O)N4CCN(c5ccc(Nc6nc(NC7CCCCC7)c7nc[nH]c7n6)cc5)CC4)c3C2=O)C1=O (centres unmarked) [Compound 23] | – | – | 700 | –
5 | 43.70% | 41.60 | 282 | 23.00% | – | 1680 | 836 | – | – | – | – | – | – | COc1cc(N2CCC(OCC(=O)N3CCN(c4cccc5c4C(=O)N(C4CCC(=O)NC4=O)C5=O)CC3)CC2)ccc1Nc1nc(Nc2ccccc2S(=O)(=O)C(C)C)c2nc[nH]c2n1 (centres unmarked) [Compound 40] | – | – | – | – (compounds with degradation less than 25% were not calculated and reported as “–”)
6 | – | – | 99.5 | – | 118 | 79.3 | – | – | 44.5 | 52.6 | 123 | 47.7 | – | c1nc2c(NC3CCCCC3)nc(Nc3ccc(N4CCNCC4)cc3)nc2[nH]1 [azareversine, reference compound] | – | – | – | –
7 | 36.10% | 68.90 | 239 | 39.40% | 66 | 598 | 506 | – | – | – | – | – | – | O=C1CCC(N2C(=O)c3cccc(NC(=O)COCCOCC(=O)N4CCN(c5ccc(Nc6nc(NC7CCCCC7)c7nc[nH]c7n6)cc5)CC4)c3C2=O)C(=O)N1 (centres unmarked) [Compound 17] | – | – | – | –
8 | 33.15% | 74.55 | 2.05 | 35.20% | 42 | 154 | 39 | – | – | – | – | – | 21 | CC(C)S(=O)(=O)c1ccccc1Nc1nc(Nc2ccc(N3CCN(C(=O)CCC(=O)Nc4cccc5c4C(=O)N(C4CCC(=O)NC4=O)C5=O)CC3)cc2)nc2[nH]cnc12 (centres unmarked) [Compound 15] | – | – | – | –
9 | 29.10% | 39.50 | 6500 | 34.20% | 1890 | 2560 | 6820 | – | – | – | – | – | – | Cc1ncsc1-c1ccc(CNC(=O)[C@@H]2C[C@@H](O)CN2C(=O)[C@@H](NC(=O)CCC(=O)NCCCNC(=O)CCC(=O)N2CCN(c3ccc(Nc4nc(NC5CCCCC5)c5nc[nH]c5n4)cc3)CC2)C(C)(C)C)cc1 [Compound 56] | – | – | – | –
10 | – | – | 1930 | – | 1750 | 4860 | – | – | 40.9 | 40.1 | 2060 | 29.6 | – | COc1cc(N2CCNCC2)ccc1Nc1nc(Nc2ccccc2S(=O)(=O)C(C)C)c2nc[nH]c2n1 [SF2] | – | – | – | –
11 | 22.20% | 62.10 | 1260 | inactive | – | – | 1130 | – | – | – | – | – | – | CC(C)S(=O)(=O)c1ccccc1Nc1nc(Nc2ccc(N3CCN(C(=O)COCCOCC(=O)Nc4cccc5c4C(=O)N(C4CCC(=O)NC4=O)C5=O)CC3)cc2)nc2[nH]cnc12 (centres unmarked) [Compound 18] | – (compounds with degradation less than 25% were not calculated and reported as “–”) | – | – | – (compounds with degradation less than 25% were not calculated and reported as “–”)
